We go through 32 compounds from the Biogen ADME set (Fang et al. 2023).

SMILES strings stand for the structures. Values after ≈ are worked out from the molar mass of the structure shown.

The conditions of this data set: for aqueous solubility: pH 6.8.

Consider `Cc1cc(C)c2ccc(C(=O)N3CCN(c4nc[nH]n4)CC3)cc2n1`, for which the MDR1-MDCK efflux ratio came out at 70.8; the intrinsic clearance, human liver microsomes is at most 4.74 mL/min/kg; the intrinsic clearance, rat liver microsomes stood at 16.8 mL/min/kg.
In the same order, the values of `COCCN(C)c1ccc(CN2CCOC3(CCCC3)C2)cn1` are 0.619, 38.5 mL/min/kg and 633 mL/min/kg.
Usually aqueous solubility stands for the dissolved amount per volume that the medium holds. A higher aqueous solubility goes with a readily soluble substance. As for `CS(=O)(=O)CCNC(=O)N1CC2(CCCC2)c2ccccc21`, the MDR1-MDCK efflux ratio turned out to be 3.67; the intrinsic clearance, human liver microsomes amounted to 9.64 mL/min/kg; the intrinsic clearance, rat liver microsomes amounted to 192 mL/min/kg; the aqueous solubility is 47.4 µg/mL (≈ 147 µM).
As to `CCOc1cc(CC(=O)N[C@@H](CC(C)C)c2ccccc2N2CCCCC2)ccc1C(=O)O`, the MDR1-MDCK efflux ratio stood at 28.7; the fraction unbound, human plasma was 0.0128; the fraction unbound, rat plasma was 0.00864; the intrinsic clearance, human liver microsomes is 38.2 mL/min/kg. The intrinsic clearance, rat liver microsomes came out at 218 mL/min/kg.
For the compound `Cc1ccc(NC(=O)c2c([O-])n(-c3ccc(C)cc3)n[n+]2Cc2ccccc2)cc1`, the MDR1-MDCK efflux ratio was 1.02 and the aqueous solubility came to 0.21 µg/mL (≈ 0.527 µM).
Take `Cc1cc(C)n(-c2ccc(CNC(=O)c3ccc4c(c3)CCO4)cn2)n1`: the MDR1-MDCK efflux ratio was 0.769; the intrinsic clearance, human liver microsomes was 11.4 mL/min/kg; the intrinsic clearance, rat liver microsomes amounted to 106 mL/min/kg; the aqueous solubility stood at 3.86 µg/mL (≈ 11.1 µM).
Consider `N#Cc1cccc(-c2ccc(=O)n3c2[C@@H]2C[C@@H](CN(Cc4cccs4)C2)C3)c1`, for which the MDR1-MDCK efflux ratio worked out at 7.04; the intrinsic clearance, human liver microsomes came to 396 mL/min/kg; the intrinsic clearance, rat liver microsomes worked out at 2000 mL/min/kg; the aqueous solubility came out at 48.9 µg/mL (≈ 126 µM).
In the same order, the values of `CNC(=O)c1ccccc1Nc1nc(Nc2ccc(N3CCOCC3)cc2OC)ncc1Cl` are 3.06, 14.9 mL/min/kg, 95.1 mL/min/kg and 1.95 µg/mL (≈ 4.15 µM).
In the same order, the values of `COC1CCN(C(=O)Nc2cc(C(F)(F)F)cc(C(F)(F)F)c2)CC1` are 0.476, 60 mL/min/kg, 158 mL/min/kg and 71.4 µg/mL (≈ 193 µM).
As to `Cc1nc2c(c(N(C)Cc3ccccc3)n1)CCN(Cc1ccccc1)C2`, the MDR1-MDCK efflux ratio is 0.742; the intrinsic clearance, human liver microsomes is 657 mL/min/kg; the intrinsic clearance, rat liver microsomes was determined as 4170 mL/min/kg; the aqueous solubility came out at 29.7 µg/mL (≈ 82.8 µM).
For `O=C(CC1c2ccccc2CCc2ccccc21)NCCN1CCOCC1`, the MDR1-MDCK efflux ratio came to 10.6; the intrinsic clearance, human liver microsomes is 131 mL/min/kg; the intrinsic clearance, rat liver microsomes is 2020 mL/min/kg.
On to `O=C(c1ccc2c(c1)OCO2)N1CCC(c2n[nH]c(C3CC3)n2)CC1`, for which the MDR1-MDCK efflux ratio came out at 62.7; the intrinsic clearance, human liver microsomes was at most 4.74 mL/min/kg; the intrinsic clearance, rat liver microsomes amounted to 44.6 mL/min/kg; the aqueous solubility came out at 27 µg/mL (≈ 79.4 µM).
As to `CC(C)(Oc1ccc(-c2cnc(N)c(-c3ccc(Cl)cc3)c2)cc1)C(=O)O`, the fraction unbound, human plasma is 0.0007; the fraction unbound, rat plasma worked out at 0.0004; the aqueous solubility amounted to 45.4 µg/mL (≈ 119 µM).
`Cc1cc(C(=O)NCCc2ccccn2)c(C)s1`: the MDR1-MDCK efflux ratio amounted to 0.639; the intrinsic clearance, human liver microsomes amounted to 63.1 mL/min/kg; the intrinsic clearance, rat liver microsomes was determined as 232 mL/min/kg; the aqueous solubility came out at 41.1 µg/mL (≈ 158 µM).
Consider `Cc1cccc(NC(=O)c2ccc3ccccc3c2)n1`, for which the MDR1-MDCK efflux ratio turned out to be 0.126; the intrinsic clearance, human liver microsomes came to 91.8 mL/min/kg; the intrinsic clearance, rat liver microsomes turned out to be 209 mL/min/kg; the aqueous solubility stood at 1.17 µg/mL (≈ 4.46 µM).
With `COc1cccc(C)c1C(=O)N[C@H](CO)CCSC`, the MDR1-MDCK efflux ratio was 1.7; the intrinsic clearance, human liver microsomes stood at 32.5 mL/min/kg; the intrinsic clearance, rat liver microsomes amounted to 741 mL/min/kg.
As to `Cc1cc(N2CCCCC2)nc(CNC(=O)c2ccccc2Cl)n1`, the MDR1-MDCK efflux ratio turned out to be 0.671; the intrinsic clearance, human liver microsomes stood at 56.5 mL/min/kg; the intrinsic clearance, rat liver microsomes stood at 1000 mL/min/kg; the aqueous solubility was 65.2 µg/mL (≈ 189 µM).
Consider `Cc1cc2cc(C(=O)N(Cc3ccc4c(c3)OCO4)C3CC3)ccc2o1`, for which the MDR1-MDCK efflux ratio is 0.28; the intrinsic clearance, human liver microsomes was found to be 127 mL/min/kg; the intrinsic clearance, rat liver microsomes was found to be 1730 mL/min/kg; the aqueous solubility was found to be 11.7 µg/mL (≈ 33.6 µM).
As for `COCC(=O)N(CC1CCCO1)c1nc2c(s1)CCc1c-2cnn1C` (stereo not drawn), the intrinsic clearance, human liver microsomes worked out at 6.3 mL/min/kg and the intrinsic clearance, rat liver microsomes stood at 14.2 mL/min/kg.
Compound `NC1(c2nc(-c3ccsc3)no2)CCCCC1` had an intrinsic clearance, human liver microsomes of at most 4.74 mL/min/kg and an intrinsic clearance, rat liver microsomes of 447 mL/min/kg.
With `CN1CCN(c2cccc(C#N)n2)CC1`, the intrinsic clearance, human liver microsomes is at most 4.74 mL/min/kg and the intrinsic clearance, rat liver microsomes came to 617 mL/min/kg.
For `CN(Cc1cnc2ccccc2n1)S(=O)(=O)N1CCCCCC1`, the MDR1-MDCK efflux ratio worked out at 0.62; the intrinsic clearance, human liver microsomes is 230 mL/min/kg; the intrinsic clearance, rat liver microsomes came to 5760 mL/min/kg.
With `CCOc1ccc(C(=O)Nc2cc(C(=O)OC)ccc2N2CCN(C(C)=O)CC2)cc1`, the MDR1-MDCK efflux ratio is 5.81; the intrinsic clearance, human liver microsomes turned out to be 21.8 mL/min/kg; the intrinsic clearance, rat liver microsomes is 444 mL/min/kg; the aqueous solubility stood at 2.41 µg/mL (≈ 5.66 µM).
Take `Cc1cccc(NC(=O)c2cncn2-c2ccccc2)n1`: the intrinsic clearance, human liver microsomes turned out to be 45.2 mL/min/kg and the intrinsic clearance, rat liver microsomes was 165 mL/min/kg.
Take `COc1c(C)cnc(Cn2cnc3c(Cl)nc(N)nc32)c1C`: the intrinsic clearance, human liver microsomes worked out at 8.46 mL/min/kg and the intrinsic clearance, rat liver microsomes was 72.9 mL/min/kg.
Regarding `Cc1cc(N)n(-c2ncnc3sc(C)c(-c4ccc(Cl)cc4)c23)n1`, the MDR1-MDCK efflux ratio came out at 0.712; the intrinsic clearance, human liver microsomes is 94.2 mL/min/kg; the intrinsic clearance, rat liver microsomes turned out to be 670 mL/min/kg; the aqueous solubility is 6.32 µg/mL (≈ 17.8 µM).
Consider `Cc1ccc(-c2cn(CC3CCN(Cc4c[nH]c(C)n4)CC3)nn2)cc1`, for which the MDR1-MDCK efflux ratio worked out at 23.3; the intrinsic clearance, human liver microsomes was at most 4.74 mL/min/kg; the intrinsic clearance, rat liver microsomes stood at 32.4 mL/min/kg; the aqueous solubility was found to be 25 µg/mL (≈ 71.3 µM).
Consider `Cc1nc(-c2ccc(S(=O)(=O)N(C)C)cc2)cc(C(C)C)n1`, for which the MDR1-MDCK efflux ratio is 0.669; the intrinsic clearance, human liver microsomes was 34.6 mL/min/kg; the intrinsic clearance, rat liver microsomes was 2230 mL/min/kg.
Consider `CC(=O)N1CCN([C@H]2CCN(C(=O)c3cc4cc(C)ccc4o3)CC[C@@H]2O)CC1`, for which the MDR1-MDCK efflux ratio is 38.8; the intrinsic clearance, human liver microsomes amounted to 7.28 mL/min/kg; the intrinsic clearance, rat liver microsomes was determined as 153 mL/min/kg.
On the same counts, the results for `CN(CCn1cnc(C#N)c1C#N)c1ccccc1` are 0.634, 52.4 mL/min/kg and 1060 mL/min/kg.
As for `CCc1nnc(NC(=O)c2ccc3cc(OC)ccc3n2)s1`, the MDR1-MDCK efflux ratio was 0.248; the intrinsic clearance, human liver microsomes is 35.9 mL/min/kg; the intrinsic clearance, rat liver microsomes stood at 105 mL/min/kg; the aqueous solubility is 4.17 µg/mL (≈ 13.3 µM).
With `CCC(C)(C)NC(=O)C1(Cc2ccc(-c3cc(F)ccc3OC)cc2)CCOCC1`, the MDR1-MDCK efflux ratio was 1.62; the intrinsic clearance, human liver microsomes was found to be 700 mL/min/kg; the intrinsic clearance, rat liver microsomes is 1020 mL/min/kg; the aqueous solubility stood at 12 µg/mL (≈ 28.9 µM).
